Measurements: ChEMBL document CHEMBL1201862, “PubChem BioAssay data set” (2004)
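A five-concentration, 48-hour dose response in 96-well plates underlies each endpoint, interpolated linearly between surrounding concentrations. Abbreviation: GI50, concentration required for 50% inhibition of growth.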 Activity calls are given as the source filed them. Rule as the data show it: active = GI50 up to about 1.1 µM and inactive = higher.

What was measured:
Test in all cases: growth of human tumour cells (NCI), 48 h
[1] = tested on: U-251
[2] = tested on: HT-29
[3] = tested on: OVCAR-3
[4] = tested on: UACC-62
[5] = tested on: A549
[6] = tested on: CCRF-CEM
[7] = tested on: BT-549
[8] = tested on: NCI/ADR-RES
[9] = tested on: RXF 393
[10] = tested on: OVCAR-5
[11] = tested on: SF-268
[12] = tested on: SW-620
[13] = tested on: HCT-15
[14] = tested on: HCT-116
[15] = tested on: IGROV-1
[16] = tested on: T47D
[17] = tested on: SNB-19
[18] = tested on: NCI-H460
[19] = tested on: DU-145
[20] = tested on: PC-3
[21] = tested on: A498
[22] = tested on: MDA-MB-435
[23] = tested on: HCC 2998
[24] = tested on: KM12
[25] = tested on: SNB-75
[26] = tested on: CAKI-1
[27] = tested on: MDA-N
[28] = tested on: SF-539
[29] = tested on: UO-31
[30] = tested on: HL-60
[31] = tested on: SK-OV-3
[32] = tested on: MOLT-4
[33] = tested on: M14
[34] = tested on: K562
[35] = tested on: 786-0
[36] = tested on: SK-MEL-2
[37] = tested on: HOP-62
[38] = tested on: ACHN
[39] = tested on: SN12C
[40] = tested on: Malme-3M
[41] = tested on: COLO 205
[42] = tested on: UACC-257
[43] = tested on: OVCAR-8
[44] = tested on: NCI-H226
[45] = tested on: SF-295
[46] = tested on: MDA-MB-231
[47] = tested on: LOX IMVI
[48] = tested on: EKVX
[49] = tested on: RPMI-8226
[50] = tested on: Hs-578T
[51] = tested on: SR
[52] = tested on: SK-MEL-28
[53] = tested on: MCF7
[54] = tested on: TK-10
[55] = tested on: NCI-H23
[56] = tested on: OVCAR-4
[57] = tested on: SK-MEL-5
[58] = tested on: HOP-92
[59] = tested on: NCI-H522

Measured: GI50

C=CCCCC1(C)CCCCNC1=O (stereo not given)
inactive: [1] > 10 µM | [2] > 10 µM | [3] > 10 µM | [4] > 10 µM | [5] > 10 µM | [6] > 10 µM | [7] > 10 µM | [8] > 10 µM | [9] > 10 µM | [10] > 10 µM | [11] > 10 µM | [12] > 10 µM | [14] > 10 µM | [15] > 10 µM | [16] > 10 µM | [17] > 10 µM | [18] > 10 µM | [19] > 10 µM | [20] > 10 µM | [21] > 10 µM | [22] > 10 µM | [23] > 10 µM | [24] > 10 µM | [25] > 10 µM | [26] > 10 µM | [27] > 10 µM | [28] > 10 µM | [29] > 10 µM | [30] > 10 µM | [31] > 10 µM | [32] > 10 µM | [33] > 10 µM | [34] > 10 µM | [35] > 10 µM | [36] > 10 µM | [37] > 10 µM | [38] > 10 µM | [39] > 10 µM | [40] > 10 µM | [41] > 10 µM | [42] > 10 µM | [43] > 10 µM | [44] > 10 µM | [45] > 10 µM | [46] > 10 µM | [47] > 10 µM | [48] > 10 µM | [49] > 10 µM | [50] > 10 µM | [51] > 10 µM | [52] > 10 µM | [53] > 10 µM | [54] > 10 µM | [55] > 10 µM | [56] > 10 µM | [57] > 10 µM
> 10 µM: [13]

CCOC(=O)C(NNS(=O)(=O)c1ccc(C)cc1)S(=O)(=O)C(F)(F)C(F)(F)C(F)(F)C(F)(F)F (stereo not given)
inactive: [1] 88.9 µM | [2] > 100 µM | [3] > 100 µM | [4] > 100 µM | [5] > 100 µM | [6] > 10 µM | [7] > 100 µM | [8] > 100 µM | [10] > 100 µM | [11] > 100 µM | [12] > 100 µM | [14] 64 µM | [15] > 100 µM | [16] > 100 µM | [17] > 100 µM | [18] > 100 µM | [19] > 100 µM | [20] > 100 µM | [21] > 100 µM | [22] > 100 µM | [23] > 100 µM | [24] > 100 µM | [25] > 100 µM | [26] > 100 µM | [27] > 100 µM | [28] > 100 µM | [29] > 100 µM | [30] > 100 µM | [31] > 100 µM | [58] 54.7 µM | [32] 81.8 µM | [33] > 100 µM | [34] > 100 µM | [59] > 100 µM | [35] > 100 µM | [36] > 100 µM | [37] > 100 µM | [38] > 100 µM | [39] > 100 µM | [40] > 100 µM | [41] > 100 µM | [42] > 100 µM | [43] > 100 µM | [44] > 100 µM | [45] 78.3 µM | [46] > 100 µM | [47] > 100 µM | [48] > 100 µM | [49] > 100 µM | [50] 97.3 µM | [51] > 100 µM | [52] > 100 µM | [53] > 100 µM | [54] > 100 µM | [55] > 100 µM | [56] > 100 µM | [57] > 100 µM
> 100 µM: [13]
